Measured values: patent US12528773B2, “Non-lysosomal glucosylceramidase inhibitors and uses thereof” (ALECTOS THERAPEUTICS INC., priority 2020, dated 2026)

Columns and labels:
Type in all cases: biochemical
[1] = tested on: rat intestinal alpha-glucosidases; assay: Inhibition of rat intestinal alpha-glucosidases (rat intestinal lysate, glucose detection); conditions: compound concentration 25 μM, sucrose as substrate
In short: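 Rat intestinal acetone-powder lysate in citrate-phosphate pH 6.0 with 50 or 25 μM compound, 3.3% DMSO, 37 °C, 20 min. Sucrose reactions used 2.1 mg/mL lysate and 40 mM sucrose; maltose reactions 0.69 mg/mL lysate and 10 mM maltose. Glucose was detected by Amplex Red fluorescence at 10 min, or by hexokinase absorbance at 340 nm, relative to no-compound wells.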

GBA2 [2] = molecular target: T1, GBA2 (Homo sapiens (Human), UniProt Q9HCG7); assay: Binding specificity for GBA2 over other molecules, Ki or IC50 ratio
T1 sequence (Q9HCG7 whole entry): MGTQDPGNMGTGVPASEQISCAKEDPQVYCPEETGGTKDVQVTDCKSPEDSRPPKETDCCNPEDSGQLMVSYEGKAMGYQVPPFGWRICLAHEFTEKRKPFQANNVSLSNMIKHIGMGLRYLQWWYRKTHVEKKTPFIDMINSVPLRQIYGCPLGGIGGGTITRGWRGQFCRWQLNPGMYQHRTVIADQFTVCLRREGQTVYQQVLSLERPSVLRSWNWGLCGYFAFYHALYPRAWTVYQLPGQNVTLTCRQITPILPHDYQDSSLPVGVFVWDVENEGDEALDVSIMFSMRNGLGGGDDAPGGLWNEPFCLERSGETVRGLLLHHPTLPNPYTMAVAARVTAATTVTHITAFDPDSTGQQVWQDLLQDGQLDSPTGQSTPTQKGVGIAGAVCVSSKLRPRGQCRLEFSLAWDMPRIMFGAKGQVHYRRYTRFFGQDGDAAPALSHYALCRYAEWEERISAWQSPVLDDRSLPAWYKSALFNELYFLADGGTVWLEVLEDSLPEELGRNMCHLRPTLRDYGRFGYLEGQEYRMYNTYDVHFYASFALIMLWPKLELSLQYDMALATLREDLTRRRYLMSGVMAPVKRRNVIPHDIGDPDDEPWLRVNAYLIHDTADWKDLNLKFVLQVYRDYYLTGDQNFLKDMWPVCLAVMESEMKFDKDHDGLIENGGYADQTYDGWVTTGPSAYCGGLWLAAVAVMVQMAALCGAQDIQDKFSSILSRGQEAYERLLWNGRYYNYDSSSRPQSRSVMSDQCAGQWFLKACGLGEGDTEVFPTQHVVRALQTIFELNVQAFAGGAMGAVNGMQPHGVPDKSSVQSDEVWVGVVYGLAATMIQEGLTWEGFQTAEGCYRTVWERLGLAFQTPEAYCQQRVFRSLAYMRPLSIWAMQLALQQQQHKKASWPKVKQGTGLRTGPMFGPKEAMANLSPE
Source text: In some embodiments, one or more of the compounds according to the invention may specifically bind a GBA2. In alternative embodiments, one or more of the compounds according to the invention may specifically bind the active site of a GBA2. […] In alternative embodiments, one or more of the compounds according to the invention may specifically bind the human non-lysosomal glucosylceramidase (GBA2) over the human lysosomal glucosylceramidase (GCase) and/or the human cytosolic glucosylceramidase (GBA3). In alternative embodiments, one or more of the compounds according to the invention may specifically bind the human non-lysosomal glucosylceramidase (GBA2) over the human glucosylceramide synthase (GCS). In alternative embodiments, one or more of the compounds according to the invention may specifically bind the human non-lysosomal glucosylceramidase (GBA2) over an intestinal alpha-glucosidase, where the intestinal alpha-glucosidase may be a sucrase-isomaltase or a maltase-glucoamylase.

GBA2 [3] = molecular target: T1, GBA2; assay: Inhibition of GBA2 in cell lysate (4-methylumbelliferone glucopyranoside substrate); conditions: HEK293T-overexpressing GBA2 cellular homogenate, pH 5.5; read-out: GBA2 IC50;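 further: homogenate of stably transfected HEK293T cells pre-treated with a GCase inhibitor, test compound preincubated 5 min at 37 °C, substrate reaction 20 min at 37 °C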

Compound | binding specificity, IC50(other molecule)/IC50(GBA2) or Ki ratio (GBA2 [2]) | IC50 (GBA2 [3]) [nM] | rat α-glu. (% inhib.) [1] [%]
O[C@H]1[C@H](O)CN(C[C@H]2CCN(c3cnccc3C(F)(F)F)C2)C[C@@H]1O [Example 20, (3S,4R,5R)-1-(((R)-1-(4-(trifluoromethyl)pyridin-3-yl)pyrrolidin-3-yl)methyl)piperidine-3,4,5-triol] | enhanced binding specificity | < 100 | 4
O[C@H]1[C@H](O)CN(C[C@H]2CCN(c3nc(C(F)(F)F)cs3)C2)C[C@@H]1O [Example 21, (3S,4R,5R)-1-(((R)-1-(4-(trifluoromethyl)thiazol-2-yl)pyrrolidin-3-yl)methyl)piperidine-3,4,5-triol] | enhanced binding specificity | < 100 | 6
O[C@H]1[C@H](O)CN(C[C@H]2CCCN(c3ncccc3C(F)(F)F)C2)C[C@@H]1O [Example 29, (3S,4R,5R)-1-(((R)-1-(3-(trifluoromethyl)pyridin-2-yl)piperidin-3-yl)methyl)piperidine-3,4,5-triol] | enhanced binding specificity | < 100 | 4
O[C@H]1[C@H](O)CN(C[C@H]2CCCN(c3cccc(C(F)(F)F)n3)C2)C[C@@H]1O [Example 30, (3S,4R,5R)-1-(((R)-1-(6-(trifluoromethyl)pyridin-2-yl)piperidin-3-yl)methyl)piperidine-3,4,5-triol] | enhanced binding specificity | < 100 | 6
O[C@H]1[C@H](O)CN(C[C@H]2CCCN(c3cccnc3C(F)(F)F)C2)C[C@@H]1O [Example 31, (3S,4R,5R)-1-(((R)-1-(2-(trifluoromethyl)pyridin-3-yl)piperidin-3-yl)methyl)piperidine-3,4,5-triol] | enhanced binding specificity | < 100 | 0
O[C@H]1[C@H](O)CN(C[C@H]2CCCN(c3nc4ccccc4s3)C2)C[C@@H]1O [Example 34, (3S,4R,5R)-1-(((R)-1-(benzo[d]thiazol-2-yl)piperidin-3-yl)methyl)piperidine-3,4,5-triol] | enhanced binding specificity | < 100 | 2
O[C@H]1[C@H](O)CN(C[C@H]2CCCN(c3cccc4scnc34)C2)C[C@@H]1O [Example 35, (3S,4R,5R)-1-(((R)-1-(benzo[d]thiazol-4-yl)piperidin-3-yl)methyl)piperidine-3,4,5-triol] | enhanced binding specificity | < 100 | 7
O[C@H]1[C@H](O)CN(C[C@@H]2CCCN(c3ncccc3C(F)(F)F)C2)C[C@@H]1O [Example 36, (3S,4S,5R)-1-(((S)-1-(3-(trifluoromethyl)pyridin-2-yl)piperidin-3-yl)methyl)piperidine-3,4,5-triol] | enhanced binding specificity | < 100 | 0
O[C@H]1[C@H](O)CN(C[C@@H]2CCCN(c3cnccc3C(F)(F)F)C2)C[C@@H]1O [Example 38, (3S,4S,5R)-1-(((S)-1-(4-(trifluoromethyl)pyridin-3-yl)piperidin-3-yl)methyl)piperidine-3,4,5-triol] | enhanced binding specificity | < 100 | 0

Second part, led by results:

binding specificity, IC50(other molecule)/IC50(GBA2) or Ki ratio (GBA2 [2]) | IC50 (GBA2 [3]) [nM] | Compound | rat α-glu. (% inhib.) [1] [%]
enhanced binding specificity | < 100 | O[C@H]1[C@H](O)CN(CCc2c(F)cc(N3CCCC3)cc2F)C[C@@H]1O [Example 10, (3S,4r,5R)-1-(2,6-difluoro-4-(pyrrolidin-1-yl)phenethyl)piperidine-3,4,5-triol] | 7
enhanced binding specificity | < 100 | O[C@H]1[C@H](O)CN(CCc2c(F)cc(N3CCCCC3)cc2F)C[C@@H]1O [Example 11, (3S,4r,5R)-1-(2,6-difluoro-4-(piperidin-1-yl)phenethyl)piperidine-3,4,5-triol] | 10
enhanced binding specificity | < 100 | O[C@H]1[C@H](O)CN(CCc2c(F)cc(N3CCOCC3)cc2F)C[C@@H]1O [Example 12, (3S,4r,5R)-1-(2,6-difluoro-4-morpholinophenethyl)piperidine-3,4,5-triol] | 4
enhanced binding specificity | < 100 | O[C@H]1[C@H](O)CN(CCc2c(F)cc(C3CCOCC3)cc2F)C[C@@H]1O [Example 13, (3S,4r,5R)-1-(2,6-difluoro-4-(tetrahydro-2H-pyran-4-yl)phenethyl)piperidine-3,4,5-triol] | 5
enhanced binding specificity | < 100 | Cc1noc(C)c1-c1cc(F)c(CCN2C[C@@H](O)[C@H](O)[C@@H](O)C2)c(F)c1 [Example 14, (3S,4r,5R)-1-(4-(3,5-dimethylisoxazol-4-yl)-2,6-difluorophenethyl)piperidine-3,4,5-triol] | 2
enhanced binding specificity | < 100 | Cc1n[nH]c(C)c1-c1cc(F)c(CCN2C[C@@H](O)[C@H](O)[C@@H](O)C2)c(F)c1 [Example 15, (3S,4r,5R)-1-(4-(3,5-dimethyl-1H-pyrazol-4-yl)-2,6-difluorophenethyl)piperidine-3,4,5-triol] | 8
enhanced binding specificity | < 100 | Cc1ccccc1N1CC[C@H](CN2C[C@@H](O)[C@H](O)[C@@H](O)C2)C1 [Example 18, (3S,4R,5R)-1-(((R)-1-(o-tolyl)pyrrolidin-3-yl)methyl)piperidine-3,4,5-triol] | 0
